The NIST ThermoML archive (doi:10.1021/je034087q)
Numbers after ± are expanded uncertainties.

Test: xn = mol fraction of the nth substance listed

CC(C)=O [acetone] + O=C=O
Conditions | mass density [kg/m3]
328.15 K, 12970 kPa, Fluid (supercritical or subcritical phases), x2 = 0.902 | 737 ± 5
328.15 K, 13310 kPa, Fluid (supercritical or subcritical phases), x2 = 0.902 | 739 ± 5
328.15 K, 13640 kPa, Fluid (supercritical or subcritical phases), x2 = 0.902 | 748 ± 5
328.15 K, 13900 kPa, Fluid (supercritical or subcritical phases), x2 = 0.902 | 748 ± 5
328.15 K, 14180 kPa, Fluid (supercritical or subcritical phases), x2 = 0.902 | 754 ± 5
328.15 K, 14600 kPa, Fluid (supercritical or subcritical phases), x2 = 0.902 | 758 ± 5
328.15 K, 14820 kPa, Fluid (supercritical or subcritical phases), x2 = 0.902 | 761 ± 5
328.15 K, Liquid, Other PVT measurement, x2 = 0.902 | 626 ± 2
333.15 K, 9750 kPa, Fluid (supercritical or subcritical phases), x2 = 0.902 | 573 ± 4
333.15 K, 9830 kPa, Fluid (supercritical or subcritical phases), x2 = 0.902 | 579 ± 4
333.15 K, 9880 kPa, Fluid (supercritical or subcritical phases), x2 = 0.902 | 582 ± 4
333.15 K, 9920 kPa, Fluid (supercritical or subcritical phases), x2 = 0.902 | 585 ± 4
333.15 K, 9990 kPa, Fluid (supercritical or subcritical phases), x2 = 0.902 | 590 ± 4
333.15 K, 10050 kPa, Fluid (supercritical or subcritical phases), x2 = 0.902 | 594 ± 4
333.15 K, 10100 kPa, Fluid (supercritical or subcritical phases), x2 = 0.902 | 599 ± 4
333.15 K, 10180 kPa, Fluid (supercritical or subcritical phases), x2 = 0.902 | 603 ± 4
333.15 K, 10250 kPa, Fluid (supercritical or subcritical phases), x2 = 0.902 | 607 ± 4
333.15 K, 10320 kPa, Fluid (supercritical or subcritical phases), x2 = 0.902 | 610 ± 4
333.15 K, 10380 kPa, Fluid (supercritical or subcritical phases), x2 = 0.902 | 614 ± 4
333.15 K, 10500 kPa, Fluid (supercritical or subcritical phases), x2 = 0.902 | 619 ± 4
333.15 K, 10610 kPa, Fluid (supercritical or subcritical phases), x2 = 0.902 | 626 ± 4
333.15 K, 10750 kPa, Fluid (supercritical or subcritical phases), x2 = 0.902 | 631 ± 4
333.15 K, 10850 kPa, Fluid (supercritical or subcritical phases), x2 = 0.902 | 636 ± 4
333.15 K, 10920 kPa, Fluid (supercritical or subcritical phases), x2 = 0.902 | 641 ± 4
333.15 K, 11080 kPa, Fluid (supercritical or subcritical phases), x2 = 0.902 | 646 ± 4
333.15 K, 11170 kPa, Fluid (supercritical or subcritical phases), x2 = 0.902 | 650 ± 4
333.15 K, 11280 kPa, Fluid (supercritical or subcritical phases), x2 = 0.902 | 654 ± 4
333.15 K, 11490 kPa, Fluid (supercritical or subcritical phases), x2 = 0.902 | 660 ± 4
333.15 K, 11690 kPa, Fluid (supercritical or subcritical phases), x2 = 0.902 | 666 ± 4
333.15 K, 11820 kPa, Fluid (supercritical or subcritical phases), x2 = 0.902 | 671 ± 4
333.15 K, 12000 kPa, Fluid (supercritical or subcritical phases), x2 = 0.902 | 676 ± 4
333.15 K, 12230 kPa, Fluid (supercritical or subcritical phases), x2 = 0.902 | 682 ± 4
333.15 K, 12390 kPa, Fluid (supercritical or subcritical phases), x2 = 0.902 | 687 ± 4
333.15 K, 12560 kPa, Fluid (supercritical or subcritical phases), x2 = 0.902 | 690 ± 4
333.15 K, 12840 kPa, Fluid (supercritical or subcritical phases), x2 = 0.902 | 697 ± 4
333.15 K, 13010 kPa, Fluid (supercritical or subcritical phases), x2 = 0.902 | 700 ± 4
333.15 K, 13280 kPa, Fluid (supercritical or subcritical phases), x2 = 0.902 | 705 ± 4
333.15 K, 13630 kPa, Fluid (supercritical or subcritical phases), x2 = 0.902 | 711 ± 4
333.15 K, 13800 kPa, Fluid (supercritical or subcritical phases), x2 = 0.902 | 716 ± 4
333.15 K, 13980 kPa, Fluid (supercritical or subcritical phases), x2 = 0.902 | 719 ± 4
333.15 K, 14280 kPa, Fluid (supercritical or subcritical phases), x2 = 0.902 | 723 ± 5
333.15 K, 14460 kPa, Fluid (supercritical or subcritical phases), x2 = 0.902 | 726 ± 5
333.15 K, 14830 kPa, Fluid (supercritical or subcritical phases), x2 = 0.902 | 733 ± 5
333.15 K, Liquid, Other PVT measurement, x2 = 0.902 | 570 ± 2
335.15 K, 9800 kPa, Fluid (supercritical or subcritical phases), x2 = 0.909 | 532 ± 3
335.15 K, 9820 kPa, Fluid (supercritical or subcritical phases), x2 = 0.909 | 535 ± 3
335.15 K, 9860 kPa, Fluid (supercritical or subcritical phases), x2 = 0.909 | 539 ± 3
335.15 K, 9900 kPa, Fluid (supercritical or subcritical phases), x2 = 0.909 | 543 ± 3
335.15 K, 9940 kPa, Fluid (supercritical or subcritical phases), x2 = 0.909 | 548 ± 3
335.15 K, 10000 kPa, Fluid (supercritical or subcritical phases), x2 = 0.909 | 551 ± 3
335.15 K, 10050 kPa, Fluid (supercritical or subcritical phases), x2 = 0.909 | 558 ± 4
335.15 K, 10100 kPa, Fluid (supercritical or subcritical phases), x2 = 0.909 | 562 ± 4
335.15 K, 10160 kPa, Fluid (supercritical or subcritical phases), x2 = 0.909 | 567 ± 4
335.15 K, 10220 kPa, Fluid (supercritical or subcritical phases), x2 = 0.909 | 572 ± 4
335.15 K, 10280 kPa, Fluid (supercritical or subcritical phases), x2 = 0.909 | 578 ± 4
